Reference: US11986532B2 (Arvinas Operations, Inc., priority 2021, dated 2024)
Like-named read-outs stand apart in the source and are kept apart here.

Target: T1, BCL6 (Homo sapiens, UniProt P41182)
T1 construct: endogenous in cells; host or cells: T47D breast cancer epithelial cells
Assay: Immunofluorescence protocol for high content imaging of BCL6 (degradation) in T47D cells, 3 days compound treatment
Assay type: cell-based
Details: for DC50: read-out: Mean DC50 (nM)* category; for Dmax: read-out: Mean Dmax (%)** category
Outline: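 High content immunofluorescence imaging (10×, 4 fields/well) of BCL6 using rabbit primary antibody, Alexa-488 secondary, cell mask and Hoechst nuclear stain after PFA fixation. Before staining, T47D cells (7K/well) were exposed for 3 days at 37° C to 3-fold serial dilutions of compound, top final concentration 0.1 or 1 μM.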

[1] = T47D cells, 3 days compound treatment

Row | Compound | DC50 [1] | Dmax [1] | Dmax (T47D) | DC50
1 | CNC(=O)COc1cc2cc(Nc3nc(N4CCC(O[C@H]5C[C@H](N6CCC7(CN(c8ccc9c(c8)CN(C8CCC(=O)NC8=O)C9=O)C7)C6)C5)CC4)ncc3Cl)ccc2n(C(C)C)c1=O (stereo partly drawn) [Compound 344, 2-({6-[(5-chloro-2-{4-[(1r,3r)-3-{2-[2-(2,6-dioxopiperidin-3-yl)-1-oxo-2,3-dihydro-1H-isoindol-5-yl]-2,6-diazaspiro [3.4]octan-6-yl}cyclobutoxy]piperidin-1-yl}pyrimidin-4-yl)amino]-2-oxo-1-(propan-2-yl)-1,2-dihydroquinolin-3-yl}oxy)-N-methylacetamide] |  |  | < 50% | < 10 nM
2 | CNC(=O)COc1cc2cc(Nc3nc(N4CCC(CN5CCC6(CN(c7cc8c(c(OC)c7)C(=O)N(C7CCC(=O)NC7=O)C8)C6)C(F)(F)C5)CC4)ncc3Cl)ccc2n(C(C)C)c1=O (stereo not drawn) [Compound 101, 2-{[6-({5-chloro-2-[4-({2-[2-(2,6-dioxopiperidin-3-yl)-7-methoxy-1-oxo-2,3-dihydro-1H-isoindol-5-yl]-5,5-difluoro-2,7-diazaspiro[3.5]nonan-7-yl}methyl)piperidin-1-yl]pyrimidin-4-yl}amino)-2-oxo-1-(propan-2-yl)-1,2-dihydroquinolin-3-yl]oxy}-N-methylacetamide] | < 10 nM | 50 to 70% |  | 
3 | CNC(=O)COc1cc2cc(Nc3nc(N4CCC(OC5CCC6(CC5)CN(c5cccc7c5CN(C5CCC(=O)NC5=O)C7=O)C6)CC4)ncc3Cl)ccc2n(C(C)C)c1=O (stereo not drawn) [Compound 61, 2-{[6-({5-chloro-2-[4-({2-[2-(2,6-dioxopiperidin-3-yl)-1-oxo-2,3-dihydro-1H-isoindol-4-yl]-2-azaspiro[3.5]nonan-7-yl}oxy)piperidin-1-yl]pyrimidin-4-yl}amino)-2-oxo-1-(propan-2-yl)-1,2-dihydroquinolin-3-yl]oxy}-N-methylacetamide] | < 10 nM | 50 to 70% |  | 
4 | CNC(=O)COc1cc2cc(Nc3nc(N4CCC(OC5CCC(N6CCC(c7ccc8c(c7)C(=O)N(C7CCC(=O)NC7=O)C8=O)CC6)C5)CC4)ncc3Cl)ccc2n(C(C)C)c1=O (stereo not drawn) [Compound 42, 2-({6-[(5-chloro-2-{4-[(3-{4-[2-(2,6-dioxopiperidin-3-yl)-1,3-dioxo-2,3-dihydro-1H-isoindol-5-yl]piperidin-1-yl}cyclopentyl)oxy]piperidin-1-yl}pyrimidin-4-yl)amino]-2-oxo-1-(propan-2-yl)-1,2-dihydroquinolin-3-yl}oxy)-N-methylacetamide] | 10 to 50 nM | 50 to 70% |  | 
5 | CNC(=O)COc1cc2cc(Nc3nc(N4CCC(O[C@H]5C[C@H](N6CCN(c7ccc8c(c7)C(=O)N(C7CCC(=O)NC7=O)C8=O)C[C@H]6C)C5)CC4)ncc3Cl)ccc2n(C(C)C)c1=O (stereo partly drawn) [Compound 263, 2-({6-[(5-chloro-2-{4-[(1r,3r)-3-[(2R)-4-[2-(2,6-dioxopiperidin-3-yl)-1,3-dioxo-2,3-dihydro-1H-isoindol-5-yl]-2-methylpiperazin-1-yl]cyclobutoxy]piperidin-1-yl}pyrimidin-4-yl)amino]-2-oxo-1-(propan-2-yl)-1,2-dihydroquinolin-3-yl}oxy)-N-methylacetamide] |  |  | 50 to 70% | < 10 nM
6 | CNC(=O)COc1cc2cc(Nc3nc(N4CCN(CC5CCN(c6c(F)ccc7c6C(=O)N(C6CCC(=O)NC6=O)C7=O)CC5)CC4)ncc3Cl)ccc2n(C)c1=O (stereo not drawn) [Compound 35, 2-{[6-({5-chloro-2-[4-({1-[2-(2,6-dioxopiperidin-3-yl)-5-fluoro-1,3-dioxo-2,3-dihydro-1H-isoindol-4-yl]piperidin-4-yl}methyl)piperazin-1-yl]pyrimidin-4-yl}amino)-1-methyl-2-oxo-1,2-dihydroquinolin-3-yl]oxy}-N-methylacetamide] | < 10 nM | 50 to 70% |  | 
7 | CNC(=O)COc1cc2cc(Nc3nc(N4CCC(O[C@H]5C[C@H](N6[C@@H](C)CN(c7ccc8c(c7)C(=O)N(C7CCC(=O)NC7=O)C8=O)C[C@@H]6C)C5)CC4)ncc3Cl)ccc2n(C(C)C)c1=O (stereo partly drawn) [Compound 253, 2-({6-[(5-chloro-2-{4-[(1r,3r)-3-[(2S,6S)-4-[2-(2,6-dioxopiperidin-3-yl)-1,3-dioxo-2,3-dihydro-1H-isoindol-5-yl]-2,6-dimethylpiperazin-1-yl]cyclobutoxy]piperidin-1-yl}pyrimidin-4-yl)amino]-2-oxo-1-(propan-2-yl)-1,2-dihydroquinolin-3-yl}oxy)-N-methylacetamide] |  |  | ≥ 70% | 10 to 50 nM
8 | CC(C)n1c(=O)c(OCC(=O)O)cc2cc(Nc3nc(N4CCC(O[C@H]5C[C@H](N6CCC(c7ccc8c(c7F)CN(C7CCC(=O)NC7=O)C8=O)CC6)C5)CC4)ncc3Cl)ccc21 (stereo partly drawn) [Compound 264, 2-({6-[(5-chloro-2-{4-[(1r,3r)-3-{4-[2-(2,6-dioxopiperidin-3-yl)-4-fluoro-1-oxo-2,3-dihydro-1H-isoindol-5-yl]piperidin-1-yl}cyclobutoxy]piperidin-1-yl}pyrimidin-4-yl)amino]-2-oxo-1-(propan-2-yl)-1,2-dihydroquinolin-3-yl}oxy)acetic acid] |  |  | ≥ 70% | < 10 nM
9 | CNC(=O)COc1cc2cc(Nc3nc(N4CCC(O[C@H]5C[C@H](N6CCN(c7ccc8c(c7)C(=O)N(C7CCC(=O)NC7=O)C8=O)C[C@@H]6C)C5)CC4)ncc3Cl)ccc2n(C(C)C)c1=O (stereo partly drawn) [Compound 261, 2-({6-[(5-chloro-2-{4-[(1r,3r)-3-[(2S)-4-[2-(2,6-dioxopiperidin-3-yl)-1,3-dioxo-2,3-dihydro-1H-isoindol-5-yl]-2-methylpiperazin-1-yl]cyclobutoxy]piperidin-1-yl}pyrimidin-4-yl)amino]-2-oxo-1-(propan-2-yl)-1,2-dihydroquinolin-3-yl}oxy)-N-methylacetamide] |  |  | 50 to 70% | 10 to 50 nM
10 | CNC(=O)COc1cc2cc(Nc3nc(N4CCC(CN5CCC6(CN(c7ccc8c(c7F)CN(C7CCC(=O)NC7=O)C8=O)C6)C(F)(F)C5)CC4)ncc3Cl)ccc2n(C(C)C)c1=O (stereo not drawn) [Compound 332, 2-{[6-({5-chloro-2-[4-({2-[2-(2,6-dioxopiperidin-3-yl)-4-fluoro-1-oxo-2,3-dihydro-1H-isoindol-5-yl]-5,5-difluoro-2,7-diazaspiro[3.5]nonan-7-yl}methyl)piperidin-1-yl]pyrimidin-4-yl}amino)-2-oxo-1-(propan-2-yl)-1,2-dihydroquinolin-3-yl]oxy}-N-methylacetamide] |  |  | ≥ 70% | < 10 nM

Continued, in another order:

Row | DC50 [1] | Dmax [1] | Compound | Dmax (T47D) | DC50
11 | < 10 nM | ≥ 70% | CNC(=O)COc1cc2cc(Nc3nc(N4CCC(OC5CCC6(CC5)CN(c5cc7c(cc5F)C(=O)N(C5CCC(=O)NC5=O)C7)C6)CC4)ncc3Cl)ccc2n(C(C)C)c1=O (stereo not drawn) [Compound 123, 2-{[6-({5-chloro-2-[4-({2-[2-(2,6-dioxopiperidin-3-yl)-6-fluoro-1-oxo-2,3-dihydro-1H-isoindol-5-yl]-2-azaspiro [3.5]nonan-7-yl}oxy)piperidin-1-yl]pyrimidin-4-yl}amino)-2-oxo-1-(propan-2-yl)-1,2-dihydroquinolin-3-yl]oxy}-N-methylacetamide] |  | 
12 | ≥ 100 nM | ≥ 70% | CNC(=O)COc1cc2cc(Nc3nc(N4CCC(F)(CN5CCC6(CC5)CCN(c5c(F)ccc7c5C(=O)N(C5CCC(=O)NC5=O)C7)CC6)CC4)ncc3Cl)ccc2n(C(C)C)c1=O (stereo not drawn) [Compound 93, 2-{[6-({5-chloro-2-[4-({9-[2-(2,6-dioxopiperidin-3-yl)-5-fluoro-3-oxo-2,3-dihydro-1H-isoindol-4-yl]-3,9-diazaspiro [5.5]undecan-3-yl}methyl)-4-fluoropiperidin-1-yl]pyrimidin-4-yl}amino)-2-oxo-1-(propan-2-yl)-1,2-dihydroquinolin-3-yl]oxy}-N-methylacetamide] |  | 
